Here are results for 5 compounds from ChEMBL document CHEMBL1122786, “Synthesis and antifolate properties of 10-alkyl-8,10-dideazaminopterins” (J Med Chem, 1984).

The test system of data set [1] is Mus musculus. Description: Compound was evaluated for antitumor activity against L1210 leukemia in mice and LD10 was determined 24 hour after subcutaneous administration in 10 E 6 cells implanted intraperitoneally. Type of data set: ADME, organism-based. Conditions: in vivo, sc.
For data set [2], the species on record is Mus musculus. Kind of data set: Compound was evaluated for antitumor activity against L1210 leukemia in mice and percent increase in life span was determined. Type of data set: functional.
The species named for data set [3] is Mus musculus. Kind of data set: Compound was evaluated for antitumor activity against L1210 leukemia in mice and median survival time was determined at ten animals per run. Type of data set: functional.
The species entered for data set [4] is Mus musculus. Kind of data set: Compound was evaluated for antitumor activity against L1210 leukemia in mice and median survival time was determined at ten mice per run. The data set is classed as functional.

As to `CN(Cc1cnc2nc(N)nc(N)c2n1)c1ccc(C(=O)N[C@@H](CCC(=O)O)C(=O)O)cc1` [METHOTREXATE], the LD10 in data set [1] stood at 15 mg/kg. The ILS in data set [2] turned out to be 187%. Also, the MST in data set [3] was determined as 20.4 days.

In data set [4], `CC(Cc1ccc2nc(N)nc(N)c2n1)c1ccc(C(=O)NC(CCC(=O)O)C(=O)O)cc1` (stereo not drawn) returned an MST of 21.5 days. Besides, the LD10 in data set [1] worked out at 0.6 mg/kg. In data set [2], this compound had an ILS of 203%.

Take `Nc1nc(N)c2nc(CCc3ccc(C(=O)NC(CCC(=O)O)C(=O)O)cc3)ccc2n1` (stereo not drawn): the LD10 in data set [1] is 0.75 mg/kg. This compound also had an ILS in data set [2] of 189%.

In the case of `CCC(Cc1ccc2nc(N)nc(N)c2n1)c1ccc(C(=O)NC(CCC(=O)O)C(=O)O)cc1` (stereo not drawn), the LD10 in data set [1] was found to be 1.5 mg/kg. This compound showed an ILS in data set [2] of 235%. Further, the MST in data set [3] stood at 23.8 days.

For `CCCC(Cc1ccc2nc(N)nc(N)c2n1)c1ccc(C(=O)NC(CCC(=O)O)C(=O)O)cc1` (stereo not drawn), the LD10 in data set [1] came to 6 mg/kg. The compound also returned an ILS in data set [2] of 176%.
